The text below walks through data of patent US12133901B2, “PSMA ligand targeted compounds and uses thereof” (CASE WESTERN RESERVE UNIVERSITY, priority 2019, dated 2024).

The target in the assay is T1, PSMA (Homo sapiens, UniProt Q04609).
T1 construct: LNcap cells were trypsinized and washed with cold Tris buffer; endogenous in cells; host or cells: LNCaP cells (printed 'LNcap'), whole-cell suspension
Put plainly: Competition binding assay against 3H-ZJ24. As to conditions: PSMA-expressing LNcap cells, 12 nM 3H-labelled ZJ24, 1 h at 37° C.; read-out: IC50 (concentration of ligand required to inhibit 50% of binding). On the procedure: LNcap cells were trypsinized and washed with cold Tris buffer (0.5 mM). […] Each group was done in triplicate. The mixture was then centrifuged and washed three times with cold PBS. Finally, 4 m L of EcoLume cocktail (MP biomedicals) was added to each sample, and radioactivity was counted by a scintillation counter. The concentration of ligands required to inhibit 50% of binding (IC50) was determined by GraphPad Prism 3.0.

Structures are written as SMILES. Numbered stars: 1 amine (or outer) side, 2 acyl side, 3 side chain; on linkers, the order of the positions; unused ones are H or OH. Square brackets hold non-standard residues; d marks the D form. Peptide text beside a SMILES is read from it. γGlu = O=C(O)[C@H](CCC(=O)[*:2])N[*:1]; X1 = O=C(C1CCC(CN[*:1])CC1)[*:2]; CO = O=C([*:1])[*:2]; Ahx = NCCCCCC(=O)O

T1 sequence (Q04609 whole entry): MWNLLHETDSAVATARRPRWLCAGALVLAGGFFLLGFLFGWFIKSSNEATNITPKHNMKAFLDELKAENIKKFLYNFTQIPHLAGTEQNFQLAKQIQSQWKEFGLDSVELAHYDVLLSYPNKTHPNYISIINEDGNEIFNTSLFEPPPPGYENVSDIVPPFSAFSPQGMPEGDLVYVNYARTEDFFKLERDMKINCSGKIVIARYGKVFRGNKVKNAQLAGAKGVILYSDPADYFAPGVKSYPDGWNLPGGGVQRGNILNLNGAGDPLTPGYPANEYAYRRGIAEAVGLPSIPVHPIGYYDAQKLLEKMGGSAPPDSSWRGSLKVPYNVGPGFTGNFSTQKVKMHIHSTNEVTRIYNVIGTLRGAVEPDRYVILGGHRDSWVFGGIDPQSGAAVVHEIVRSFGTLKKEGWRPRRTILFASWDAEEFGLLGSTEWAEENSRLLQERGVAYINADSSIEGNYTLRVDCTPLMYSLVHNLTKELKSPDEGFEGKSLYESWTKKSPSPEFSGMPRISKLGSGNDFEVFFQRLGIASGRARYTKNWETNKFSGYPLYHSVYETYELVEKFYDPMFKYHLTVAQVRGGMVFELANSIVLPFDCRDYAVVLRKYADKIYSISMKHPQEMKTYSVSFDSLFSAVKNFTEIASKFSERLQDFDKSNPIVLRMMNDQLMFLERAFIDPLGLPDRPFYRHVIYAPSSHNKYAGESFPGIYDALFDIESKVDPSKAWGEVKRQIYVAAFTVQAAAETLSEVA

`NCCCC[C@H](NC(=O)[C@H](CCC(=O)O)NC(=O)[C@H](CCC(=O)O)NC(=O)[C@H](CCC(=O)O)NC(=O)CCCCCNC(=O)C1CCC(CNC(=O)CC[C@H](NC(=O)N[C@@H](CCC(=O)O)C(=O)O)C(=O)O)CC1)C(=O)N[C@@H](Cc1ccc(O)cc1)C(=O)N[C@@H](CS)C(N)=O` (stereo partly drawn) [CY-PSMA-1, Glu-CO-Glu′-Amc-Ahx-Glu-Glu-Glu-Lys-Tyr-Cys-NH2] ({Glu-CO-γGlu}-[X1][Ahx]EEEKYC-NH2): the IC50 was found to be 1.69 nM.
In the case of `CSC[C@H](NC(=O)N[C@@H](CCC(=O)O)C(=O)O)C(=O)O` [ZJ24] it was 8.31 nM.
